The subject of one data set is rats. The data set can be described thus: Acute toxicity, peroral, rats. The data set is classed as in vivo. The note with it: 100 mg/kg p.o., observed 24 hours. How it is done:
(§1) The acute toxicity was determined in rats of both sexes (1:1) with a body weight of 120-150 gm. The test compound was perorally administered as a suspension in 1% methyl-cellulose (1 ml/100gm animal) by means of an esophageal sound.

Data set [1] in a line: Acute toxicity, peroral, rats. The data set is classed as in vivo. The note with it: rat, in vivo, po, suspension in 1% methyl-cellulose, observed 24 hours. How it is done: as §1
Data set [2] concerns the target T1, prostaglandin synthetases (Bos taurus, UniProt O62664).
T1 construct: isolated as a microsomal extract from bovine seminal vesicles; from tissue; host or cells: bovine seminal vesicles (microsomal extract)
T1 sequence (O62664 25-600): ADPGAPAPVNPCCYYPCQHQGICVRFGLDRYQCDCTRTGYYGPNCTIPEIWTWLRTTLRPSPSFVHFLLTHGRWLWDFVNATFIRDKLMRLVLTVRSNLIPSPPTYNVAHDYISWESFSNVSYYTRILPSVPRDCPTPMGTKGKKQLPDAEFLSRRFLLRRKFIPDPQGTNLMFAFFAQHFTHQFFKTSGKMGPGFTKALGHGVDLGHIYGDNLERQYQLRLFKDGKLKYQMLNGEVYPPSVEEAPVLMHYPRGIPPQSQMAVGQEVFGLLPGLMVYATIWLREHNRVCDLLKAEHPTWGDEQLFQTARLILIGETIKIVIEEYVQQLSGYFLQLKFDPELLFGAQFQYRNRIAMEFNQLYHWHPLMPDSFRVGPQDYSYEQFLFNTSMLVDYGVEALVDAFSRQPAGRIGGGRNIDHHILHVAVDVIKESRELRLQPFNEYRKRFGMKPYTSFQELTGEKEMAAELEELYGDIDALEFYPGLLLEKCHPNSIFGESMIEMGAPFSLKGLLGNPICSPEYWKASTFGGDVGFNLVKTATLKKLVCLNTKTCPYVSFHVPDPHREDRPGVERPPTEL
The data set can be described thus: Anti-inflammatory activity: inhibition of prostaglandin biosynthesis (prostaglandin synthetases, microsomal extract from bovine seminal vesicles). The note with it: 14C-arachidonic acid substrate, read-out: EC50 in mol (50% decrease in the amount of prostaglandins). The data set is classed as biochemical. The procedure:
Therefore, the anti-inflammatory activity was determined as the activity against the prostaglandin synthetases:
^14 C-arachidonic acid served as the substrate. The prostaglandins biosynthetisized therefrom were separated chromatographically from the ^14 C-arachidonic acid, and the remaining substrate and product were measured radiochemically.

Data set [3] has as its system thrombocyte aggregation in platelet-rich plasma of healthy test persons (collagen). The data set can be described thus: Inhibition of blood-platelet aggregation (Born test), collagen-induced, platelet-rich plasma. The data set is classed as cell-based, healthy test persons (human). Conditions: Homo sapiens, read-out: Percentage change in light permeability of plasma (Born test); for inhibition at 1 µM: 10^-6 mol/liter; for inhibition at 20 µM: 2.10^-5 mol/liter; for inhibition at 2 µM: 2.10^-6 mol/liter; for inhibition at 0.2 µM: 2.10^-7 mol/liter. How it is done: The decrease in the optical density of platelet suspensions was measured photometrically and recorded after the addition of collagen. From the angle of inclination of the density curve the velocity of aggregation was estimated. The optical density was taken as the point on the curve where the most light was transmitted. The doses of collagen were chosen so as to be sufficient to produce irreversible aggregation. […] Commercial collagen sold by Hormonchemie, Munich, Germany, was used.

Setting [4] is: 10^-5 mol/liter, collagen, =% decrease in aggregation vs control.
Setting [5] is: collagen, =% decrease in aggregation vs control.

The results in this text go back to patent US4259336A, “4-Hydroxy-2H-[1]-benzothieno [2,3-e]-1,2-thiazine-3-carboxamide-1,1-dioxides and salts thereof” (Boehringer Ingelheim GmbH, priority 1978, dated 1981).

For orientation: LD50 means the dose expected to kill half of the subjects tested. The EC50 is the concentration at which the effect is half-maximal.

Read-outs that look alike come from different tables or passages of the source.

On to `CN1C(C(=O)Nc2nccs2)=C(O)c2sc3ccccc3c2S1(=O)=O` [A, 4-Hydroxy-2-methyl-N-(2-thiazolyl)-2H-[1] benzothieno-[2,3-e]-1,2-thiazine-3-carboxamide-1,1-dioxide], for which the animals died with rats was 0 out of 10. Moreover, in data set [1], the LD50 at 24 h is > 100 mg/kg. Also, in data set [2] (DMSO 2%), the concentration for a half-maximal effect (EC50) is 39 nM. In data set [3] (setting [4]), the inhibition at 10 µM stood at 94%. The inhibition at 1 µM in data set [3] (setting [5]) turned out to be 73%. Further, in data set [3] (10^-7 mol/liter, collagen, =% decrease in aggregation vs control), the inhibition at 0.1 µM worked out at 14%.

As to `Cc1cccc(NC(=O)C2=C(O)c3sc4ccccc4c3S(=O)(=O)N2C)n1` [B, 4-Hydroxy-2-methyl-N-(6-methyl-2-pyridyl)-2H-[1] benzothieno [2,3-e]-1,2-thiazine-3-carboxamide-1,1-dioxide], in data set [3] (4.10^-6 mol/liter, collagen, =% decrease in aggregation vs control), the inhibition at 4 µM came to 100%. Also, the inhibition at 0.4 µM in data set [3] (4.10^-7 mol/liter, collagen, =% decrease in aggregation vs control) is 71%.

On to `Cc1csc(NC(=O)C2=C(O)c3sc4ccccc4c3S(=O)(=O)N2C)n1` [C, 4-Hydroxy-2-methyl-N-(4-methyl-2-thiazolyl)-2H-[1] benzothieno [2,3-e]-1,2-thiazine-3-carboxamide-1,1-dioxide], for which, in the data set with rats, the animals died is 0 out of 10. Moreover, the 50% lethal dose (LD50) at 24 h in data set [1] is > 100 mg/kg. Besides, the EC50 in data set [2] (DMSO 2%) came out at 21 nM. The inhibition at 10 µM in data set [3] (setting [4]) is 93%. Besides, in data set [3] (setting [5]), the inhibition at 1 µM stood at 57%.

With `Cc1ccnc(NC(=O)C2=C(O)c3sc4ccccc4c3S(=O)(=O)N2C)c1` [D, 4-Hydroxy-2-methyl-N-(4-methyl-2-pyridyl)-2H-[1]-benzothieno-[2,3-e]-1,2-thiazine-3-carboxamide-1,1-dioxide], in data set [3] (setting [5]), the inhibition at 20 µM amounted to 88%, the inhibition at 2 µM came to 60% and the inhibition at 0.2 µM came to 19%.

Consider `Cc1ccnc(NC(=O)C2=C(O)c3sc4cc(C)ccc4c3S(=O)(=O)N2C)c1` [E, 2,7-Dimethyl-4-hydroxy-N-(4-methyl-2-pyridyl)-2H-[1]-benzothieno [2,3-e]-1,2-thiazine-3-carboxamide-1,1-dioxide], for which, in data set [3] (setting [5]), the inhibition at 20 µM was 72% and the inhibition at 2 µM came to 34%.

As for `Cc1ccc2c3c(sc2c1)C(O)=C(C(=O)Nc1cccc(C)n1)N(C)S3(=O)=O` [F, 2,7-Dimethyl-4-hydroxy-N-(6-methyl-2-pyridyl)-2H-[1]-benzothieno [2,3-e]-1,2-thiazine-3-carboxamide-1,1-dioxide], in data set [3] (setting [5]), the inhibition at 20 µM stood at 90%, the inhibition at 2 µM was found to be 77% and the inhibition at 0.2 µM was found to be 30%.

On to `Cc1ccnc(NC(=O)C2=C(O)c3sc4cc(Cl)ccc4c3S(=O)(=O)N2C)c1` [G, 7-Chloro-4-hydroxy-2-methyl-N-(4-methyl-2-pyridyl)-2H-[1]-benzothieno [2,3-e]-1,2-thiazine-3-carboxamide-1,1-dioxide], for which, in data set [3] (setting [5]), the inhibition at 20 µM turned out to be 66% and the inhibition at 2 µM is 33%.

`Cc1cccc(NC(=O)C2=C(O)c3sc4cc(Cl)ccc4c3S(=O)(=O)N2C)n1` [H, 7-Chloro-4-hydroxy-2-methyl-N-(6-methyl-2-pyridyl)-2H-[1] benzothieno [2,3-e]-1,2-thiazine-3-carboxamide-1,1-dioxide]: in data set [3] (setting [5]), the inhibition at 20 µM worked out at 89%, the inhibition at 2 µM worked out at 88% and the inhibition at 0.2 µM is 33%.

For the compound `CN1C(C(=O)Nc2nc3ccccc3s2)=C(O)c2sc3ccccc3c2S1(=O)=O` [I, N-(2-Benzothiazolyl)-4-hydroxy-2-methyl-2H-[1] benzothieno [2,3-e]-1,2-thiazine-3-carboxamide-1,1-dioxide], the animals died in the data set with rats was 0 out of 10. In data set [1], the LD50 at 24 h was > 100 mg/kg. Besides, the concentration giving a half-maximal response (EC50) in data set [2] (DMSO 2%) amounted to 22 nM.

As to `CN1C(C(=O)Nc2ncc(Cl)s2)=C(O)c2sc3ccccc3c2S1(=O)=O` [J, N-(5-Chloro-2-thiazolyl)-4-hydroxy-2-methyl-2H-[1] benzothieno [2,3-e]-1,2-thiazine-3-carboxamide-1,1-dioxide], the animals died with rats is reported as 0 out of 10. For the same compound, the median lethal dose (LD50) at 24 h in data set [1] is > 100 mg/kg. For the same compound, in data set [2] (DMSO 2%), the EC50 is 47 nM.

`Cc1nc(NC(=O)C2=C(O)c3sc4ccccc4c3S(=O)(=O)N2C)sc1C` [K, N-(4,5-Dimethyl-2-thiazolyl)-4-hydroxy-2-methyl-2H-[1]-benzothieno [2,3-e]-1,2-thiazine-3-carboxamide-1,1-dioxide]: in the data set on rats, the animals died is 0 out of 10. Moreover, in data set [1], the 50% lethal dose (LD50) at 24 h is > 100 mg/kg. Moreover, the EC50 in data set [2] (DMSO 10%) was 250 nM.

On to `CC(=O)Oc1ccccc1C(=O)O` [V, Acetylsalicyclic acid, reference compound], for which, in data set [3], the inhibition at 10 µM was 13% and the inhibition at 30 µM is 45%.

As for `CN1C(C(=O)Nc2nccs2)=C(O)c2ccccc2S1(=O)=O` [W, Sudoxicam, reference compound], the concentration giving a half-maximal response (EC50) in data set [2] (DMSO 2%) stood at 7000 nM.
